# Results from US12029751B2, “Therapeutic agent for nervous system disease” (OSAKA UNIVERSITY, priority 2017, dated 2024).
# How the values were obtained:
# [1] = system: microglia cell line (6-3 cells); assay: Western blot of M1 markers (iNOS, IL-1β) and M2 markers (Arg1, CD206) in microglia; type: cell-based
# Protocol: To a microglia cell line (6-3 cells), LPS (100 ng/ml) and an anti-inflammatory cytokine IL-4 (20 ng/ml) were added. Methylcobalamin solutions each having a different concentration ranging from 1 nM to 1 mM were added to the mixture, and proteins were recovered from each mixture at 1 and 3 days after the addition. Electrophoresis and transfer to a membrane were performed, the membrane was blocked, and the cells were allowed to react with each of primary antibodies against M1 markers (iNOS and IL-1β) and M2 markers (Arg1 and CD206) at 4° C. overnight. Cells were allowed to react with a secondary antibody at room temperature for 1 hour, and bands were detected using a detector.
# The primary antibodies used were an anti-iNOS antibody, an anti-IL-1β antibody, an anti-Arg1 antibody, and an anti-CD206 (a mannose receptor) antibody. The secondary antibody used was an Anti-Rabbit IgG, HRP-Linked Whole Ab Sheep.
# [2] = system: photocoagulation-induced cerebral infarction model C57BL/6J mice; assay: Rotarod test in photocoagulation-induced cerebral infarction model; type: in vivo, mouse
# Protocol: Eight to 10-week-old male C57BL/6J mice (about 24 g) were used. A photocoagulation-induced cerebral infarction model for laser light irradiation after rose bengal administration was constructed. In this model, the skull of each mouse was drilled to open a hole having a center at 2 mm from the anterior fontanel in the outward direction. At 5 minutes after a photosensitive dye rose bengal was administered, the right motor cortex as a center was irradiated with laser light to create cerebral infarction in the right lateral motor cortex. An osmotic pump (ALZET osmotic pumps, for 2-week operation) was embedded immediately after the creation of the cerebral infarction. The mice were divided into a methylcobalamin treatment group (N=3) and an untreated group (N=4), and rotarod tests (accelerating velocity method) were carried out at 2, 4, 7, 9, 11, and 14 days after the surgery creating cerebral infarction. The time until a mouse fell from a rotarod was measured, and a ratio to a maximum of 300 seconds as baseline was calculated.
# [3] = system: rat spinal cord injury model; assay: Thermal algesimetry test in rat spinal cord injury model; type: in vivo; settings: for Thermal algesimetry test, Time after spying infrared thermal stimulation: right sole
# Protocol: Six-week-old female Wistar rats were used. The rats were purchased from Charles River Laboratories Japan, Inc. (Yokohama, Japan). Anesthesia was performed as follows. A 1:10 dilution of a mixture of three anesthetic agents in physiological saline was administered by intraperitoneal injection. One dose consisted of 0.2 mg/kg of midazolam, 0.015 mg/kg of medetomidine, and 0.25 mg/kg of butorphanol. The rat was placed in a prone position on an operating table, and a dorsal midline incision was made. The T10 vertebral arch was removed to expose the posterior face of the spinal cord, and the left spinal cord was hemisected using a sharp-pointed surgical scalpel (spitz mess). The skin was sutured using a 4-0 nylon thread and the surgery was completed. A comparison was made among three groups: a methylcobalamin treatment group, an untreated group, and a sham group. Immediately after the surgical operation, an osmotic minipump filled with methylcobalamin (1 mg/kg/day) or physiological saline was placed for the methylcobalamin treatment group and the untreated group, respectively, and left in the left dorsal subcutaneous space. The sham group underwent only resection of the Th10 vertebral arch.
# Each rat was separately accommodated in a dedicated cage, an infrared thermal stimulation was applied to the right sole, and time until the rat retracted the hind limb was measured. To avoid damage to the skin, the stimulation was continued for 15 seconds at the maximum. The evaluations were performed before surgery, and at 7, 14, 21, and 28 days after the surgery.
# [4] = system: Mouse macrophage cell line J774A.1; assay: Immunohistological evaluation of iNOS-positive (M1) and Arg1-positive (M2) macrophages; type: cell-based; settings: for percentage of M2 macrophages (percentage of Arg1-positive cells): 72 hours; for percentage of M1 macrophages (percentage of iNOS-positive cells): 24 hours
# Protocol: Mouse macrophage cell line J774A.1 (JCRB9108) was purchased from JCRB Cell Bank (Laboratory of Cell Cultures), Osaka, Japan. Cells were cultured in DMEM containing 10% FBS and 1% penicillin/streptomycin.
# The J774A.1 cells (Example 5-1) were seeded on a dish having a diameter of 6 cm. After 4 days, cells were fixed with 4% PFA for 20 minutes. Blocking was performed for 30 minutes, and the cells were allowed to react with primary antibodies at 4° C. overnight. The cells were further allowed to react with a secondary antibody at room temperature for 1 hour so that the nuclei were labeled with DAPI. To detect the M1 marker iNOS, LPS (100 ng/ml) and methylcobalamin were added at 24 hours before fixing the cells. To detect the M2 marker Arg1, IL-4 (20 ng/ml) and methylcobalamin were added at 72 hours before fixing the cells.
# The primary antibodies used were a rabbit anti-iNOS monoclonal antibody (Abeam) and a rabbit anti-Arg1 polyclonal antibody (Santa Cruz). The secondary antibody used was an Alexa 488-labeled goat anti-rabbit IgG antibody (Life Technologies) or an Alexa 568-labeled goat anti-rabbit IgG antibody (Life Technologies).
structure (smiles),measurement,setting,value
"C/C1=C2/[N-][C@H]([C@H](CC(N)=O)[C@@]2(C)CCC(=O)NC[C@@H](C)OP(=O)([O-])O[C@H]2[C@@H](O)[C@@H](n3cnc4cc(C)c(C)cc43)O[C@@H]2CO)[C@]2(C)N=C(/C(C)=C3N=C(/C=C4N=C1[C@@H](CCC(N)=O)C\4(C)C)[C@@H](CCC(N)=O)[C@]\3(C)CC(N)=O)[C@@H](CCC(N)=O)[C@]2(C)CC(N)=O.[CH3-].[Co+3] [MeCbl, methylcobalamin]",amount of Arg1 protein as compared with IL-4 alone,[1]; IL-4 + 1 nM to 10 μM methylcobalamin,significantly increased
same,amount of CD206 as compared with IL-4 alone,[1]; IL-4 + 10 nM to 100 nM methylcobalamin,significantly increased
same,"Arg1 (amount of protein, IL-4 alone = 1.00)",[1]; MeCbl 1 nM,1.78
same,"CD206 (amount of protein, IL-4 alone = 1.00)",[1]; MeCbl 1 nM,1.11
same,"Arg1 (amount of protein, IL-4 alone = 1.00)",[1]; MeCbl 10 nM,2.03
same,"CD206 (amount of protein, IL-4 alone = 1.00)",[1]; MeCbl 10 nM,1.42
same,"Arg1 (amount of protein, IL-4 alone = 1.00)",[1]; MeCbl 100 nM,2.72
same,"CD206 (amount of protein, IL-4 alone = 1.00)",[1]; MeCbl 100 nM,1.39
same,"Arg1 (amount of protein, IL-4 alone = 1.00)",[1]; MeCbl 1 μM,2.20
same,"CD206 (amount of protein, IL-4 alone = 1.00)",[1]; MeCbl 1 μM,1.17
same,"Arg1 (amount of protein, IL-4 alone = 1.00)",[1]; MeCbl 10 μM,2.08
same,"CD206 (amount of protein, IL-4 alone = 1.00)",[1]; MeCbl 10 μM,1.17
same,"Arg1 (amount of protein, IL-4 alone = 1.00)",[1]; MeCbl 100 μM,1.37
same,"CD206 (amount of protein, IL-4 alone = 1.00)",[1]; MeCbl 100 μM,1.24
same,"Arg1 (amount of protein, IL-4 alone = 1.00)",[1]; MeCbl 1 mM,0.59
same,"CD206 (amount of protein, IL-4 alone = 1.00)",[1]; MeCbl 1 mM,1.11
same,amount of iNOS protein as compared with LPS alone,[1]; LPS + at least 10 nM methylcobalamin,significantly decreased
same,amount of IL-1β protein as compared with LPS alone,[1]; LPS + at least 1 μM methylcobalamin,significantly decreased
same,"IL-1β (amount of protein, LPS alone = 1.00)",[1]; MeCbl 1 nM,1.02
same,"iNOS (amount of protein, LPS alone = 1.00)",[1]; MeCbl 1 nM,0.87
same,"IL-1β (amount of protein, LPS alone = 1.00)",[1]; MeCbl 10 nM,0.95
same,"iNOS (amount of protein, LPS alone = 1.00)",[1]; MeCbl 10 nM,0.74
same,"IL-1β (amount of protein, LPS alone = 1.00)",[1]; MeCbl 100 nM,0.83
same,"iNOS (amount of protein, LPS alone = 1.00)",[1]; MeCbl 100 nM,0.76
same,"IL-1β (amount of protein, LPS alone = 1.00)",[1]; MeCbl 1 μM,0.72
same,"iNOS (amount of protein, LPS alone = 1.00)",[1]; MeCbl 1 μM,0.61
same,"IL-1β (amount of protein, LPS alone = 1.00)",[1]; MeCbl 10 μM,0.58
same,"iNOS (amount of protein, LPS alone = 1.00)",[1]; MeCbl 10 μM,0.46
same,"IL-1β (amount of protein, LPS alone = 1.00)",[1]; MeCbl 100 μM,0.53
same,"iNOS (amount of protein, LPS alone = 1.00)",[1]; MeCbl 100 μM,0.36
same,"IL-1β (amount of protein, LPS alone = 1.00)",[1]; MeCbl 1 mM,0.32
same,"iNOS (amount of protein, LPS alone = 1.00)",[1]; MeCbl 1 mM,0.05
same,"rotarod test: time until fall, ratio to a maximum of 300 seconds as baseline",[2]; 0 day after PIT operation (baseline),0.998
same,"rotarod test: time until fall, ratio to a maximum of 300 seconds as baseline","[2]; 2 days after PIT operation, osmotic pump",0.470
same,"rotarod test: time until fall, ratio to a maximum of 300 seconds as baseline","[2]; 2 days after PIT operation, osmotic pump, listed as methylcobalamin",significantly improved
same,"rotarod test: time until fall, ratio to a maximum of 300 seconds as baseline","[2]; 4 days after PIT operation, osmotic pump",0.573
same,"rotarod test: time until fall, ratio to a maximum of 300 seconds as baseline","[2]; 4 days after PIT operation, osmotic pump, listed as methylcobalamin",significantly improved
same,"rotarod test: time until fall, ratio to a maximum of 300 seconds as baseline","[2]; 7 days after PIT operation, osmotic pump",0.370
same,"rotarod test: time until fall, ratio to a maximum of 300 seconds as baseline","[2]; 9 days after PIT operation, osmotic pump",0.437
same,"rotarod test: time until fall, ratio to a maximum of 300 seconds as baseline","[2]; 9 days after PIT operation, osmotic pump, listed as methylcobalamin",significantly improved
same,"rotarod test: time until fall, ratio to a maximum of 300 seconds as baseline","[2]; 11 days after PIT operation, osmotic pump",0.521
same,"rotarod test: time until fall, ratio to a maximum of 300 seconds as baseline","[2]; 14 days after PIT operation, osmotic pump",0.510
same,"Thermal algesimetry test, Time after spying infrared thermal stimulation",[3]; 0 days after surgery (before surgery),9.99 s
same,right-lower-extremity hyperesthesia (thermal algesimetry test),"[3]; 21 and 28 days after the surgery, 1 mg/kg/day osmotic minipump",significantly improved
same,"Thermal algesimetry test, Time after spying infrared thermal stimulation",[3]; 7 days after surgery,8.59 s
same,"Thermal algesimetry test, Time after spying infrared thermal stimulation",[3]; 14 days after surgery,8.86 s
same,"Thermal algesimetry test, Time after spying infrared thermal stimulation",[3]; 21 days after surgery,9.61 s
same,"Thermal algesimetry test, Time after spying infrared thermal stimulation",[3]; 28 days after surgery,9.92 s
same,percentage of M2 macrophages (percentage of Arg1-positive cells),[4]; IL-4 20 ng/ml + MeCbl 1 nM,10.90%
same,percentage of M2 macrophages (percentage of Arg1-positive cells),[4]; IL-4 20 ng/ml + MeCbl 10 nM,18.57%
same,percentage of M2 macrophages (percentage of Arg1-positive cells),[4]; IL-4 20 ng/ml + MeCbl 100 nM,18.95%
same,percentage of M2 macrophages (percentage of Arg1-positive cells),[4]; IL-4 20 ng/ml + MeCbl 1 μM,19.32%
same,percentage of M2 macrophages (percentage of Arg1-positive cells),[4]; IL-4 20 ng/ml + MeCbl 10 μM,15.24%
same,percentage of M2 macrophages (percentage of Arg1-positive cells),[4]; IL-4 20 ng/ml + MeCbl 100 μM,10.61%
same,percentage of M2 macrophages (percentage of Arg1-positive cells),[4]; IL-4 20 ng/ml + MeCbl 1 mM,9.49%
same,proportion of cells positive for the M2 marker Arg1 as compared to IL-4 alone,[4]; IL-4 + 10 nM to 1 μM methylcobalamin,significantly increased
same,percentage of M1 macrophages (percentage of iNOS-positive cells),[4]; LPS 100 ng/ml + MeCbl 1 nM,16.64%
same,percentage of M1 macrophages (percentage of iNOS-positive cells),[4]; LPS 100 ng/ml + MeCbl 10 nM,9.57%
same,percentage of M1 macrophages (percentage of iNOS-positive cells),[4]; LPS 100 ng/ml + MeCbl 100 nM,7.26%
same,percentage of M1 macrophages (percentage of iNOS-positive cells),[4]; LPS 100 ng/ml + MeCbl 1 μM,3.42%
same,percentage of M1 macrophages (percentage of iNOS-positive cells),[4]; LPS 100 ng/ml + MeCbl 10 μM,11.45%
same,percentage of M1 macrophages (percentage of iNOS-positive cells),[4]; LPS 100 ng/ml + MeCbl 100 μM,10.34%
same,percentage of M1 macrophages (percentage of iNOS-positive cells),[4]; LPS 100 ng/ml + MeCbl 1 mM,17.57%
same,proportion of cells positive for the M1 marker iNOS as compared with LPS alone,[4]; LPS + 10 nM to 100 μM methylcobalamin,significantly decreased
same,methylcobalamin concentration at peak of switch from M1 to M2,[4]; immunofluorescent staining,around 100 nM
